Reference: ChEMBL document CHEMBL1201862, “PubChem BioAssay data set” (2004)
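All cell lines were grown in 96-well plates and treated with compound for 48 hours. GI50 marks 50% less growth.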 Activity calls are given as the source filed them. Cut-off read from the data, not from the text of the source: active = GI50 up to about 1.1 µM and inactive = higher.

Columns and labels:
Test in all cases: NCI anticancer screen, dose series, 48 h
A498 = test system: A498
K562 = test system: K562
HCT-116 = test system: HCT-116
UACC-62 = test system: UACC-62
NCI/ADR-RES = test system: NCI/ADR-RES
Hs-578T = test system: Hs-578T
ACHN = test system: ACHN
EKVX = test system: EKVX
BT-549 = test system: BT-549
MCF7 = test system: MCF7
IGROV-1 = test system: IGROV-1
PC-3 = test system: PC-3
Malme-3M = test system: Malme-3M
MDA-MB-231 = test system: MDA-MB-231
MDA-N = test system: MDA-N
SF-295 = test system: SF-295
T47D = test system: T47D
A549 = test system: A549
SN12C = test system: SN12C
SK-OV-3 = test system: SK-OV-3
COLO 205 = test system: COLO 205
HCC 2998 = test system: HCC 2998
SF-268 = test system: SF-268
DU-145 = test system: DU-145
UACC-257 = test system: UACC-257
SK-MEL-2 = test system: SK-MEL-2
UO-31 = test system: UO-31
NCI-H23 = test system: NCI-H23
SNB-19 = test system: SNB-19
NCI-H226 = test system: NCI-H226
SF-539 = test system: SF-539
U-251 = test system: U-251
MDA-MB-435 = test system: MDA-MB-435
M14 = test system: M14
MOLT-4 = test system: MOLT-4
CCRF-CEM = test system: CCRF-CEM
TK-10 = test system: TK-10
786-0 = test system: 786-0
CAKI-1 = test system: CAKI-1
OVCAR-3 = test system: OVCAR-3
SNB-75 = test system: SNB-75
HOP-62 = test system: HOP-62
HCT-15 = test system: HCT-15
RXF 393 = test system: RXF 393
NCI-H522 = test system: NCI-H522
SW-620 = test system: SW-620
HT-29 = test system: HT-29
SK-MEL-5 = test system: SK-MEL-5
SK-MEL-28 = test system: SK-MEL-28
OVCAR-5 = test system: OVCAR-5
OVCAR-8 = test system: OVCAR-8
HL-60 = test system: HL-60
HOP-92 = test system: HOP-92
KM12 = test system: KM12
NCI-H460 = test system: NCI-H460
LOX IMVI = test system: LOX IMVI
OVCAR-4 = test system: OVCAR-4

COc1cc(OC)c2c(=O)c(OC)c(-c3ccc4c(c3)OCO4)oc2c1OC
GI50 (A498): > 100 µM (inactive)
GI50 (K562): > 100 µM (inactive)
GI50 (HCT-116): 83.9 µM (inactive)
GI50 (UACC-62): 98.9 µM (inactive)
GI50 (NCI/ADR-RES): > 100 µM (inactive)
GI50 (Hs-578T): > 100 µM (inactive)
GI50 (ACHN): 83.8 µM (inactive)
GI50 (EKVX): 47 µM (inactive)
GI50 (BT-549): > 100 µM (inactive)
GI50 (MCF7): > 100 µM (inactive)
GI50 (IGROV-1): > 100 µM (inactive)
GI50 (PC-3): > 100 µM (inactive)
GI50 (Malme-3M): > 100 µM (inactive)
GI50 (MDA-MB-231): 91.4 µM (inactive)
GI50 (MDA-N): > 100 µM (inactive)
GI50 (SF-295): 91.4 µM (inactive)
GI50 (T47D): 41.8 µM (inactive)
GI50 (A549): > 100 µM (inactive)
GI50 (SN12C): > 100 µM (inactive)
GI50 (SK-OV-3): > 100 µM (inactive)
GI50 (COLO 205): 53.6 µM (inactive)
GI50 (HCC 2998): > 100 µM (inactive)
GI50 (SF-268): > 100 µM (inactive)
GI50 (DU-145): 81.1 µM (inactive)
GI50 (UACC-257): > 100 µM (inactive)
GI50 (SK-MEL-2): > 100 µM (inactive)
GI50 (UO-31): > 100 µM (inactive)
GI50 (NCI-H23): > 100 µM (inactive)
GI50 (SNB-19): > 100 µM (inactive)
GI50 (NCI-H226): > 100 µM (inactive)
GI50 (SF-539): > 100 µM (inactive)
GI50 (U-251): > 100 µM (inactive)
GI50 (MDA-MB-435): > 100 µM (inactive)
GI50 (M14): > 100 µM (inactive)
GI50 (MOLT-4): 78.5 µM (inactive)
GI50 (CCRF-CEM): 28.5 µM (inactive)
GI50 (TK-10): > 100 µM (inactive)
GI50 (786-0): > 100 µM (inactive)
GI50 (CAKI-1): > 100 µM (inactive)
GI50 (OVCAR-3): > 100 µM (inactive)
GI50 (SNB-75): > 100 µM (inactive)
GI50 (HOP-62): 91.8 µM (inactive)
GI50 (HCT-15): > 100 µM
GI50 (RXF 393): > 100 µM (inactive)
GI50 (NCI-H522): 43.1 µM (inactive)
GI50 (SW-620): > 100 µM (inactive)
GI50 (HT-29): > 100 µM (inactive)
GI50 (SK-MEL-5): 23.2 µM (inactive)
GI50 (SK-MEL-28): > 100 µM (inactive)
GI50 (OVCAR-5): > 100 µM (inactive)
GI50 (OVCAR-8): > 100 µM (inactive)
GI50 (HL-60): 6.82 µM (inactive)
GI50 (HOP-92): 4.91 µM (inactive)
GI50 (KM12): > 100 µM (inactive)
GI50 (NCI-H460): > 100 µM (inactive)
GI50 (LOX IMVI): 41.2 µM (inactive)

O=[N+]([O-])C(Cl)C(Cl)C(Cl)=C(Cl)Cl (stereo unspecified)
GI50 (A498): > 77.3 µM (inactive)
GI50 (K562): 29.8 µM (inactive)
GI50 (HCT-116): 19.4 µM (inactive)
GI50 (UACC-62): 16.6 µM (inactive)
GI50 (NCI/ADR-RES): 40.7 µM (inactive)
GI50 (Hs-578T): 25.1 µM (inactive)
GI50 (ACHN): 16.4 µM (inactive)
GI50 (EKVX): > 100 µM (inactive)
GI50 (BT-549): 22.6 µM (inactive)
GI50 (MCF7): 13.8 µM (inactive)
GI50 (IGROV-1): 13.3 µM (inactive)
GI50 (PC-3): > 41.3 µM (inactive)
GI50 (Malme-3M): 14.8 µM (inactive)
GI50 (MDA-MB-231): 16.2 µM (inactive)
GI50 (MDA-N): 19.1 µM (inactive)
GI50 (SF-295): 60 µM (inactive)
GI50 (T47D): 0.547 µM (active)
GI50 (A549): > 91.8 µM (inactive)
GI50 (SN12C): 33.7 µM (inactive)
GI50 (SK-OV-3): 19.5 µM (inactive)
GI50 (COLO 205): 17.5 µM (inactive)
GI50 (HCC 2998): > 40.9 µM (inactive)
GI50 (SF-268): > 45.8 µM (inactive)
GI50 (DU-145): 88.7 µM (inactive)
GI50 (UACC-257): 22.1 µM (inactive)
GI50 (UO-31): > 31.6 µM (inactive)
GI50 (NCI-H23): 23.8 µM (inactive)
GI50 (SNB-19): 54 µM (inactive)
GI50 (NCI-H226): > 100 µM (inactive)
GI50 (SF-539): 38.5 µM (inactive)
GI50 (U-251): > 83.6 µM (inactive)
GI50 (MDA-MB-435): 23.7 µM (inactive)
GI50 (M14): 13.8 µM (inactive)
GI50 (OVCAR-4): 16.7 µM (inactive)
GI50 (MOLT-4): 19.1 µM (inactive)
GI50 (CCRF-CEM): 23.7 µM (inactive)
GI50 (TK-10): 19.4 µM (inactive)
GI50 (786-0): 7.85 µM (inactive)
GI50 (CAKI-1): 17.6 µM (inactive)
GI50 (OVCAR-3): 26 µM (inactive)
GI50 (SNB-75): 32.7 µM (inactive)
GI50 (HOP-62): 41.2 µM (inactive)
GI50 (HCT-15): 18.7 µM
GI50 (RXF 393): 18.5 µM (inactive)
GI50 (NCI-H522): 21.4 µM (inactive)
GI50 (SW-620): 18 µM (inactive)
GI50 (HT-29): 17.6 µM (inactive)
GI50 (SK-MEL-5): 15 µM (inactive)
GI50 (SK-MEL-28): 18.5 µM (inactive)
GI50 (OVCAR-5): > 50.2 µM (inactive)
GI50 (OVCAR-8): 30.9 µM (inactive)
GI50 (HL-60): 10.4 µM (inactive)
GI50 (KM12): > 66.7 µM (inactive)
GI50 (NCI-H460): 49.1 µM (inactive)
GI50 (LOX IMVI): 14.4 µM (inactive)
